From US10073083B2, “Prophylactic and therapeutic agents for FGFR3 diseases and screening method for the same” (KYOTO UNIVERSITY, priority 2013, dated 2018)
Ends that are not written are not given here. Peptide text beside a SMILES is read from it. * marks the point of attachment. Cbz = O=C(OCc1ccccc1)*

Tests used:
FGFR3 = assay: Western blotting of FGFR3 in primary chondrocytes; type: cell-based, mouse
Procedure: Cell lysates were separated by SDS-PAGE. The separated proteins were immunostained with anti-FGFR3 antibody (Cell Signaling, #4574), anti-phosphorylated MAPK antibody (Cell Signaling, #9109) or anti-β-actin antibody (Cell Signaling, #49776).
The investigation of the effects of the inhibitors was performed as follows. A total of 2.5×10^5 primary chondrocytes were plated in each well of a six-well plate, and were cultured in the presence or absence of 1 μM lovastatin for 2 days. Then, the culture was supplemented with […] MG132, 100 nM Baf A1 or vehicle. Two hours later, the culture was further supplemented with 50 ng/ml FGF9 (PeproTech) and incubated at 4° C. for 2 hours. Then cells were collected and subjected to analysis by Western blotting.

TD-iPSCs [1] = assay: Chondrogenic differentiation of TD-iPSCs, cartilaginous extracellular matrix by safranin O staining; type: cell-based, human; details: day 42; for chondrogenic differentiation of TD-iPSCs (safranin O): TD714-3, CNP 100 nM, NF449 25 μM, FGFR inhibitor 1 μM, IGF1R inhibitor 1 nM; for chondrogenic differentiation / cartilage formation of TD-iPSCs (safranin O): statin 1 μM in cartilage differentiation medium
Procedure: (§1) The iPS cell lines were transferred to Matrigel (Invitrogen)-coated dishes, then Essential 8 medium (Life Technologies) supplemented with 50 units/ml penicillin and 50 μg/ml streptomycin was added, and the cell lines were cultured for undifferentiated maintenance under the feeder-free conditions. The iPS cell lines formed colonies that consisted of 1 to 2×10^5 cells 10 to 15 days after seeding, and the medium was changed to mesodermal differentiation medium (DMEM/F12 supplemented with 10 ng/ml Wnt3A (R&D), 10 ng/ml activin A (R&D), 1% insulin-transferrin-sodium selenite (Invitrogen), 1% fetal calf serum, 50 units/ml penicillin and 50 μg/ml streptomycin) (day zero of differentiation). Three days after (day 3 of differentiation), the medium was changed to cartilage differentiation medium (DMEM/F12 supplemented with 50 μg/ml ascorbic acid, 10 ng/ml BMP2 (Osteopharma), 10 ng/ml TGFβ (PeproTech), 10 ng/ml GDF5, 1% insulin-transferrin-sodium selenite, 1% FBS, 50 units/ml penicillin and 50 μg/ml streptomycin). Eleven days after (day 14 of differentiation), the cells were physically separated from the dishes, and transferred to a suspension culture in the same medium. Fourteen days after transfer (day 28 of differentiation) and 28 days after transfer (day 42 of differentiation), the cells formed particles and the particles were harvested for analyses. The culture medium was changed every 2 to 7 days during differentiation.
FGFR3 neutralizing antibody was added to the medium during the chondrogenic differentiation of TD-iPSCs to inhibit FGFR3 activity, and chondrocyte formation was assessed. The FGFR3 neutralizing antibody (Santa Cruz (sc-13121)) was added as 1 μl of an antibody solution (200 ng/ml) in 1 ml of cartilage differentiation medium. As a control, IgG (Cell Signaling, #27295) was used. The chondrogenic differentiation was performed in the same manner as in Example 2, and the cartilaginous particles were assessed on days 28 and 42 of differentiation.
(§2) Several drugs that had previously been reported to affect FGFR3 signaling and/or chondrocyte differentiation (CNP, NF449, a FGFR inhibitor, and an IGF1R inhibitor) were selected, and their ability to rescue TD-iPSCs from failure of chondrogenic differentiation was investigated. The stock CNP (Sigma, N8768), NF449 (Abcam, ab120415), a FGFR inhibitor (PD 173047, Cayman) and an IGF1R inhibitor (IGF-1R inhibitor, PPP. Calbiochem, 407247) solutions were prepared at a concentration of 100 μM, 50 mM, 1 mM, 1 μM, respectively. The stock solutions were added to cartilage differentiation medium at the final concentrations of CNP, NF449, the FGFR inhibitor and the IGF1R inhibitor of 100 nM, 25 μM 1 μM, and 1 nM, respectively (day 3 of differentiation). TD-iPSCs were chondrogenically differentiated in the same manner as in Example 2, and the cartilaginous particles were assessed on days 28 and 42 of differentiation. As a control, an equal volume of water or DMSO was added to the medium. mRNA expression analysis was performed in the same manner as in Example 1.
To investigate whether lovastatin rescues TD-iPSCs from failure of chondrogenic differentiation, evaluation was performed in the same manner as in Example 4. A stock lovastatin (TCI, L0214) solution was prepared by dissolving it in DMSO at a concentration of 10 mM, and the solution was added to cartilage differentiation medium at a final concentration of 1 μM.

TD-iPSCs [2] = assay: Real-time RT-PCR expression analysis of chondrocyte and fibroblast marker genes in chondrogenically differentiated TD-iPSCs; type: cell-based, human; details: TD714-3; CNP 100 nM, IGF1R inhibitor 1 nM; day 28
Procedure: mRNAs were isolated from the cell lines using RNeasy Mini Kit (Qiagen). A total of 500 ng of the total RNA was used as a template for cDNA synthesis by reverse transcription using ReverTra Ace system (TOYOBO). Standard curves for quantitative PCR (real-time PCR) were established and used for analyses. Real-time PCR analysis was performed in Step One system (ABI) using KAPA SYBR FAST qPCR kit Master Mix ABI Prism (KAPA BIOSYSTEMS).
as §1, §2

[3] = system: TD-iPSC-derived cartilaginous particles; assay: Incorporation of BrdU by TD-iPSC-derived cartilaginous particles; type: cell-based, human; details: presence vs absence of statin, 1 μM; day 28
FGFR3^Ach mice = assay: Bone growth of ACH model mice treated with statins, X-ray imaging; type: in vivo, mouse; details: day 3 to day 14, 15 days old
Procedure: The FGFR3^Ach mice were crossed with wild-type mice (C57BL/6 background). A rosuvastatin solution at a dose of 1.0 mg/kg was intraperitoneally administered to the crossed mice 6 times per week from 3 days after birth until day 14. The mice were euthanized on day 15, and the bodies and the bone formation were examined by X-ray imaging (Faxitron DX-50). Genomic DNA was extracted from the toes of each mouse and subjected to genotype analysis. Also, a lovastatin solution at a dose of 0.4 mg/kg was intraperitoneally administered to the crossed mice 6 times per week from day 3 after birth until day 28, and the mice were euthanized on day 29 for examination of the bodies and the bone formation in the same manner as above.

[4] = rosuvastatin 1.0 mg/kg intraperitoneally 6 times per week

Compound: CO/C1=C\C(C)=C\[C@@H](C)[C@@H](O)[C@@H](C)C/C(C)=C/C=C/[C@H](OC)[C@@H]([C@@H](C)[C@@H](O)[C@H](C)[C@@]2(O)C[C@@H](O)[C@H](C)[C@@H](C(C)C)O2)OC1=O [Bafilomycin A1]
- expression of FGFR3 (FGFR3; FGFR3^Ach chondrocytes in the presence of 1 μM lovastatin, 100 nM Baf A1): slightly increased

Compound: CCN(CC)CCCCNc1ncc2cc(-c3cc(OC)cc(OC)c3)c(NC(=O)NC(C)(C)C)nc2n1 [FGFR inhibitor, PD 173047]
- chondrogenic differentiation of TD-iPSCs (safranin O) (TD-iPSCs [1]): had no effect on the chondrogenic differentiation of TD-iPSCs

Compound: COc1cc([C@@H]2c3cc4c(cc3[C@H](O)[C@H]3COC(=O)[C@@H]23)OCO4)cc(OC)c1OC [IGF1R inhibitor]
- chondrogenic differentiation of TD-iPSCs (safranin O) (TD-iPSCs [1]): rescued TD-iPSCs from failure of chondrogenic differentiation
- expression of chondrocyte marker genes (SOX9, COL2, AGGRECAN) (TD-iPSCs [2]): increased the expression of chondrocyte marker genes
- expression of fibroblast marker genes (COL1A1, COL1A2) (TD-iPSCs [2]): decreased the expression of fibroblast marker genes

Compound: CC(C)C[C@@H](C=O)NC(=O)[C@H](CC(C)C)NC(=O)[C@H](CC(C)C)NC(=O)OCc1ccccc1 [MG132] (Cbz-Leu-Leu-Leu-aldehyde)
- amount of FGFR3 (FGFR3; FGFR3^Ach chondrocytes cultured in the presence of 1 μM lovastatin, 10 mM MG132): increased the amount of FGFR3

Compound: O=C(Nc1cc(C(=O)Nc2ccc(S(=O)(=O)O)cc2S(=O)(=O)O)cc(C(=O)Nc2ccc(S(=O)(=O)O)cc2S(=O)(=O)O)c1)Nc1cc(C(=O)Nc2ccc(S(=O)(=O)O)cc2S(=O)(=O)O)cc(C(=O)Nc2ccc(S(=O)(=O)O)cc2S(=O)(=O)O)c1 [NF449]
- chondrogenic differentiation of TD-iPSCs (safranin O) (TD-iPSCs [1]): had no effect on the chondrogenic differentiation of TD-iPSCs

Compound: CC(C)c1c(C(=O)Nc2ccccc2)c(-c2ccccc2)c(-c2ccc(F)cc2)n1CC[C@@H](O)C[C@@H](O)CC(=O)O [atorvastatin]
- chondrogenic differentiation / cartilage formation of TD-iPSCs (safranin O) (TD-iPSCs [1]): rescued abnormal cartilage formation in the TD-iPSC-derived chondrocytes

Compound: CC[C@H](C)C(=O)O[C@H]1CCC=C2C=C[C@H](C)[C@H](CC[C@@H]3C[C@@H](O)CC(=O)O3)[C@H]21 [mevastatin]
- chondrogenic differentiation / cartilage formation of TD-iPSCs (safranin O) (TD-iPSCs [1]): rescued abnormal cartilage formation in the TD-iPSC-derived chondrocytes

Compound: CC(C)c1nc(N(C)S(C)(=O)=O)nc(-c2ccc(F)cc2)c1/C=C/[C@@H](O)C[C@@H](O)CC(=O)O [rosuvastatin]
- chondrogenic differentiation / cartilage formation of TD-iPSCs (safranin O) (TD-iPSCs [1]): rescued abnormal cartilage formation in the TD-iPSC-derived chondrocytes
- number of BrdU-positive cells [3]: significantly increased the number of BrdU-positive cells
- anteroposterior lengths of the skulls (Cranial A-P) (FGFR3^Ach mice; [4]): increased
- lengths of the femurs (Femur) (FGFR3^Ach mice; [4]): increased
- lengths of the tibiae (Tibia) (FGFR3^Ach mice; [4]): increased
- lengths of the ulnas (Ulna) (FGFR3^Ach mice; [4]): increased
- differences in the lengths vs wild-type mice receiving vehicle (FGFR3^Ach mice; rosuvastatin 1.0 mg/kg intraperitoneally, t-test): no significant differences

Compound: c-type natriuretic peptide (GLSKGCFGLKLDRIGSMSGLGC; ends and bridges not checked; cysteine pairing not given here; UniProt P23582 105-126, looked up) [CNP, c-type natriuretic peptide (Sigma, N8768)]
- chondrogenic differentiation of TD-iPSCs (safranin O) (TD-iPSCs [1]): rescued TD-iPSCs from failure of chondrogenic differentiation
- expression of chondrocyte marker genes (SOX9, COL2, AGGRECAN) (TD-iPSCs [2]): increased the expression of chondrocyte marker genes
- expression of fibroblast marker genes (COL1A1, COL1A2) (TD-iPSCs [2]): decreased the expression of fibroblast marker genes
